Measured values as given in PubChem BioAssay (NCI).
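Cells were grown in 96-well plates and exposed to each compound for 48 hours at five concentrations; endpoints were interpolated linearly between bracketing concentrations, or set to the highest concentration if not reached. At the GI50, growth is halved. TGI is the concentration that stops growth completely.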

Columns and labels:
Test in all cases: growth of human tumour cells (NCI), 48 h
CCRF-CEM leukemia = system: CCRF-CEM leukemia
PC-3 prostate = system: PC-3 prostate
HS 578T breast = system: HS 578T breast
HOP-92 NSCLC = system: HOP-92 NSCLC
HCC-2998 colon = system: HCC-2998 colon
SK-MEL-2 melanoma = system: SK-MEL-2 melanoma
UO-31 renal = system: UO-31 renal
LOX IMVI melanoma = system: LOX IMVI melanoma
RXF 393 renal = system: RXF 393 renal
HCT-15 colon = system: HCT-15 colon

| Structure (SMILES) | GI50 (CCRF-CEM leukemia) | TGI (CCRF-CEM leukemia) | GI50 (PC-3 prostate) | TGI (PC-3 prostate) | GI50 (HS 578T breast) | TGI (HS 578T breast) | GI50 (HOP-92 NSCLC) | TGI (HOP-92 NSCLC) | GI50 (HCC-2998 colon) | TGI (HCC-2998 colon) | GI50 (SK-MEL-2 melanoma) | TGI (SK-MEL-2 melanoma) | GI50 (UO-31 renal) | TGI (UO-31 renal) | GI50 (LOX IMVI melanoma) | TGI (LOX IMVI melanoma) | GI50 (RXF 393 renal) | TGI (RXF 393 renal) | GI50 (HCT-15 colon) | TGI (HCT-15 colon) |
| --- | --- | --- | --- | --- | --- | --- | --- | --- | --- | --- | --- | --- | --- | --- | --- | --- | --- | --- | --- | --- |
| C[C@@H]1CC[C@H]2[C@@H](C)C(O)O[C@@H]3O[C@]4(C)CC[C@@H]1[C@]32OO4 (stereo partly drawn) | 0.568 µM | 35 µM | 0.0662 µM | > 43.3 µM | 1.33 µM | 42.2 µM | 0.716 µM | 7.05 µM | 2.6 µM | > 63.2 µM | 2 µM | 15.2 µM | 0.375 µM | 2.31 µM | 0.309 µM | 0.973 µM | 1.15 µM | 17.8 µM | 0.141 µM | 13.8 µM |
| Cc1nc2ccccn2c1NC(=O)NN1C(=O)CSC1c1ccc(Cl)cc1 (stereo not drawn) |  | 0.012 µM | > 100 µM | > 100 µM | > 100 µM | > 100 µM | > 100 µM | > 100 µM | > 100 µM | > 100 µM | > 100 µM | > 100 µM | > 100 µM | > 100 µM | > 100 µM | > 100 µM | > 100 µM | > 100 µM | > 100 µM | > 100 µM |
| CCn1cnc(C[C@H](NC(=O)[C@H](CCCCNC(=O)Nc2cc(C(F)(F)F)cc(C(F)(F)F)c2)NC(=O)Nc2cc(C(F)(F)F)cc(C(F)(F)F)c2)C(=O)OC)c1 | 3.04 µM | > 10 µM | 2.82 µM | > 10 µM | 4.49 µM | > 10 µM | 2.24 µM | 9.81 µM | 3.98 µM | > 10 µM | > 10 µM | > 10 µM | > 10 µM | > 10 µM | 3.56 µM | > 10 µM | 4.24 µM | > 10 µM | > 10 µM | > 10 µM |
| N#C/C(=C\c1ccc(O)c(O)c1)C(=O)NCc1ccc(C(F)(F)F)cc1 | 2.14 µM | 14.7 µM | 30.1 µM | > 100 µM | 12.6 µM | 46.9 µM | 0.468 µM | 12.3 µM | 12.1 µM | 24.5 µM |  | 6.34 µM | 4.62 µM | 18 µM | 7.54 µM | 20.4 µM | 12.2 µM | 41 µM | 4.05 µM | 41.1 µM |
| Cc1cc(=O)oc2c(C3=NN(C=O)C(c4ccccc4)C3)c(O)ccc12 (stereo not drawn) |  | > 100 µM |  | > 100 µM |  | > 93.2 µM |  | 74.5 µM |  | > 100 µM |  | > 100 µM |  | > 100 µM |  | > 100 µM |  | > 80.5 µM |  | > 100 µM |
| Cc1cc(F)c(C(=O)Nc2cccc(-c3nncn3C(C)C)n2)cc1-n1cnc(C2CC2)c1 | 21 µM | > 100 µM | 16.6 µM | 92.4 µM | 26.6 µM | > 100 µM | 8.23 µM | > 100 µM | 14.3 µM | > 100 µM | 23.9 µM | 58.1 µM | 3.05 µM | 23.7 µM | 14.4 µM | 35.9 µM | 20.6 µM | 49.1 µM | 15.6 µM | 96.4 µM |
| CNC(=O)c1cc(Oc2ccc3nc(NC(=O)Nc4ccc(CN5CCOCC5)c(C(F)(F)F)c4)sc3c2)ccn1 | 2.73 µM | > 100 µM | 2.04 µM | 6.22 µM | 2.55 µM | 9.6 µM | 1.44 µM | 3.64 µM | 3 µM | 7.11 µM | 2.74 µM | 7.81 µM | 1.65 µM | 3.94 µM | 1.82 µM | 4.34 µM | 1.81 µM | 4.03 µM | 2.08 µM | 7.09 µM |
| Oc1ccc(NC(=S)Nc2ccccc2)cc1 | > 100 µM | > 100 µM | > 100 µM | > 100 µM | > 100 µM | > 100 µM | 51.8 µM | > 100 µM | > 100 µM | > 100 µM | > 100 µM | > 100 µM | > 100 µM | > 100 µM | > 100 µM | > 100 µM | > 100 µM | > 100 µM | > 100 µM | > 100 µM |
| Nc1nc(N)c2c(n1)NC(c1sc(Cl)nc1Cl)CC(c1ccccc1)=N2 (stereo not drawn) | 3.21 µM | 16.9 µM | 5.89 µM | 24 µM | 2.44 µM | 11.1 µM | 3.72 µM | 18 µM | 10.3 µM | 21.9 µM | 2.98 µM | 10.9 µM | 3.04 µM | 15.6 µM | 5.39 µM | 18.1 µM | 2.48 µM | 9.5 µM | 3.05 µM | 15.2 µM |
| CCOC(=O)/C(=C/CC/C(C)=C/CC/C(C)=C/CCc1ccoc1)CC(=O)N1CCCCC1 | 3.56 µM | 22.5 µM | 3.1 µM | 17.9 µM | 5.07 µM | 35.2 µM | 1.7 µM | 4.26 µM | 3.93 µM | 14.3 µM | 2.04 µM | 4 µM | 2.8 µM | 12.8 µM | 4.43 µM | 15.8 µM | 2.45 µM | 9.62 µM | 3.01 µM | 12.5 µM |
